Experimental findings from patent publication US20260022143A1, “Cyclic Peptide Inhibitors of IL-23” (JANSSEN PHARMACEUTICA NV, priority 2022, published 2026) are described below.

pIC50: −log10 of the molar value. Positions of bridges follow the written chain, without caps; N, C: chain ends. Non-standard residues stand in square brackets, D forms with d. Residues, ends and D or L forms follow the SMILES beside them. *: point of attachment. Me3N+(CH2)2O(CH2)2O(CH2)2CO = C[N+](C)(C)CCOCCOCCC(=O)*; CH2CH2OCH2CH2OCH2CH2NMe3+ = C[N+](C)(C)CCOCCOCC*; Phe(4-N3) = [N-]=[N+]=Nc1ccc(C[C@H](N)C(=O)O)cc1; Trp(7-Me) = Cc1cccc2c(C[C@H](N)C(=O)O)c[nH]c12; X28 = CCCCCCCCCCCCCCCC[N+](C)(C)CCc1cn(CC*)nn1; 2Nal = N[C@@H](Cc1ccc2ccccc2c1)C(=O)O; AEF = NCCOc1ccc(C[C@H](N)C(=O)O)cc1; 3Pal = N[C@@H](Cc1cccnc1)C(=O)O; Lys(Me) = CNCCCC[C@H](N)C(=O)O; Pen = CC(C)(S)[C@H](N)C(=O)O; Thp = NC1(C(=O)O)CCOCC1; X3 = C[N+](C)(C)CCCCC*; Sar = CNCC(=O)O Some results are limits rather than exact numbers.

A short description of series [1]: Exposed Polar Surface Area (EPSA). It is filed as physicochemical. Particulars: SFC on Chirex 3014 column; sample 1 mM DMSO stock; read-out: EPSA. In outline:
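Chirex 3014 column, 35 °C, 4 mL/min; CO2/MeOH + 20 mM NH4 formate, 5→60% modifier at 20%/min. UV/MS detection. EPSA (Å^2) from retention time vs 8-standard calibration line; duplicates; 1 mM DMSO stock injected undiluted.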

The target of another series is T1, IL-23R (Homo sapiens, UniProt Q5VWK5).
T1 construct: host or cells: HEK293
T1 sequence (Q5VWK5 24-629): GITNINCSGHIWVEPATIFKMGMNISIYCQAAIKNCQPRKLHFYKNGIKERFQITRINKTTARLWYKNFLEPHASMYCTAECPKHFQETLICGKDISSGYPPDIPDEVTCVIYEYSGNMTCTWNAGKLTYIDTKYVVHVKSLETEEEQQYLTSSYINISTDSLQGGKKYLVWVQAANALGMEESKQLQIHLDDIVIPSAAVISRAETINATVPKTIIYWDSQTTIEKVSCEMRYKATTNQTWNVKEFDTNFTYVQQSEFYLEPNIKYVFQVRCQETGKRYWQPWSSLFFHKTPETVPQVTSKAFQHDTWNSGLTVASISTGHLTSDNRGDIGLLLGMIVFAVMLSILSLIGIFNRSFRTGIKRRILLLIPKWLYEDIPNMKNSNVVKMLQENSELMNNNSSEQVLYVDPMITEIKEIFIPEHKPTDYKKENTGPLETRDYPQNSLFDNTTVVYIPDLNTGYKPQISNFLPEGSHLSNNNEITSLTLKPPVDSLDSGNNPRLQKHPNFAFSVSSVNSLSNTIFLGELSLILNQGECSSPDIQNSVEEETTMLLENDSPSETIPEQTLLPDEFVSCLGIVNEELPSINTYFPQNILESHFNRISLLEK
In words: IL23R Reporter Assay. It is filed as cell-based. Particulars: HEK293 cells containing IL-23R, IL-12RP1 and STAT-inducible firefly luciferase reporter; 10 ng/mL IL-23 (EC90); 5 h at 37° C.; read-out: IL23R Reporter Assay. For orientation: In a reporter assay the amount or activity of a reporter protein is the signal.

For the compound `CNC(=O)C[C@H](NC(=O)[C@H](CCCCN(C)C(C)=O)NC(=O)C1(NC(=O)[C@H](Cc2ccc3ccccc3c2)NC(=O)[C@H](Cc2ccc(OCCCCC[N+](C)(C)C)cc2)NC(=O)[C@H]2NC(=O)[C@H](CCCCN(C)C(C)=O)NC(=O)[C@H](Cc3c[nH]c4c(C)cccc34)NC(=O)[C@H]([C@@H](C)O)NC(=O)[C@H](CC(=O)N(C)C)NC(=O)[C@@H](NC(=O)CCOCCOCC[N+](C)(C)C)C(C)(C)SSC2(C)C)CCOCC1)C(=O)N[C@@H](Cc1cccnc1)C(=O)N(C)CC(=O)N(C)C` [compound 560, cPEG3aCO-Pen(3)-N(N(Me)2)-T-7MeW-K(NMeAc)-Pen(3)-TMAPF-2Nal-THP-k(NMeAc)-N(NMe)-3Pya-Sar-CON(Me)2] ({Me3N+(CH2)2O(CH2)2O(CH2)2CO}-[Pen]D(NMe2)T[Trp(7-Me)][Lys(Me)](Ac)[Pen]Y(X3)[2Nal][Thp][Lys(Me)](Ac)D(NHMe)[3Pal][Sar]-NMe2; disulfide 1-6), in series [1], the EPSA is 154 A^2. Further, the pIC50 on IL-23R was 8.47.
With `CC(=O)NCCCC[C@@H]1NC(=O)[C@H](Cc2c[nH]c3c(C)cccc23)NC(=O)[C@H]([C@@H](C)O)NC(=O)[C@H](CC(N)=O)NC(=O)[C@@H](NC(=O)CCOCCOCC[N+](C)(C)C)C(C)(C)SSC(C)(C)[C@@H](C(=O)N[C@@H](Cc2ccc(OCCN)cc2)C(=O)N[C@@H](Cc2ccc3ccccc3c2)C(=O)NC2(C(=O)N[C@@H](CCCCNC(C)=O)C(=O)N[C@@H](CC(N)=O)C(=O)N[C@@H](Cc3cccnc3)C(=O)N(C)CC(N)=O)CCOCC2)NC1=O` [compound 90, cPEG3aCO-Pen(3)-N-T-7MeW-K(Ac)-Pen(3)-AEF-2Nal-THP-K(Ac)-N-3Pya-Sar-CONH2] ({Me3N+(CH2)2O(CH2)2O(CH2)2CO}-[Pen]NT[Trp(7-Me)]K(Ac)[Pen][AEF][2Nal][Thp]K(Ac)N[3Pal][Sar]-NH2; disulfide 1-6), in series [1], the EPSA was 164 A^2. Besides, on IL-23R, the pIC50 is 8.43.
Turning to `CC(=O)N[C@@H]1C(=O)N[C@@H](CC(=O)N(C)C)C(=O)N[C@@H]([C@@H](C)O)C(=O)N[C@@H](Cc2c[nH]c3c(C)cccc23)C(=O)N[C@H](COCCOCC[N+](C)(C)C)C(=O)N[C@H](C(=O)N[C@@H](Cc2ccc(OCCOCCOCC[N+](C)(C)C)cc2)C(=O)N[C@@H](Cc2ccc3ccccc3c2)C(=O)NC2(C(=O)N[C@@H](COCCOCC[N+](C)(C)C)C(=O)N[C@@H](CC(N)=O)C(=O)N[C@@H](Cc3cccnc3)C(=O)N(C)CC(=O)N(C)C)CCOCC2)C(C)(C)SSC1(C)C` (relative stereo) [compound 255, MeCO-Pen(3)-N(N(Me)2)-T-7MeW-APEG2Ser(R*)-Pen(3)-APEG3F-2Nal-THP-APEG2Ser(S*)-N-3Pya-Sar-CON(Me)2], the EPSA in series [1] is 141 A^2. The pIC50 on IL-23R was 7.66.
With `Cc1cccc2c(C[C@@H]3NC(=O)[C@H]([C@@H](C)O)NC(=O)[C@H](CC(=O)N(C)C)NC(=O)[C@@H](NC(=O)CCOCCOCC[N+](C)(C)C)C(C)(C)SSC(C)(C)[C@@H](C(=O)N[C@@H](Cc4ccc(OCCN)cc4)C(=O)N[C@@H](Cc4ccc5ccccc5c4)C(=O)NC4(C(=O)N[C@@H](CCC(=O)N(C)C)C(=O)N[C@@H](CC(N)=O)C(=O)N[C@@H](Cc5cccnc5)C(=O)N(C)CC(=O)N(C)C)CCOCC4)NC(=O)[C@H](CCC(=O)N(C)C)NC3=O)c[nH]c12` [compound 139, cPEG3aCO-Pen(3)-N(N(Me)2)-T-7MeW-Q(N(Me)2)-Pen(3)-AEF-2Nal-THP-Q(N(Me)2)-N-3Pya-Sar-CON(Me)2] ({Me3N+(CH2)2O(CH2)2O(CH2)2CO}-[Pen]D(NMe2)T[Trp(7-Me)]E(NMe2)[Pen][AEF][2Nal][Thp]E(NMe2)N[3Pal][Sar]-NMe2; disulfide 1-6), the EPSA in series [1] turned out to be 150 A^2. Further, the pIC50 at IL-23R was 8.47.
For `CC(=O)N(C)CCCC[C@@H]1NC(=O)[C@H](Cc2c[nH]c3c(C)cccc23)NC(=O)[C@H]([C@@H](C)O)NC(=O)[C@H](CC(=O)N(C)C)NC(=O)[C@@H](NC(=O)CCOCCOCC[N+](C)(C)C)C(C)(C)SSC(C)(C)[C@@H](C(=O)N[C@@H](Cc2ccc(OCCCCC[N+](C)(C)C)cc2)C(=O)N[C@@H](Cc2ccc3ccccc3c2)C(=O)NC2(C(=O)N[C@@H](CCC(=O)O)C(=O)N[C@@H](CC(N)=O)C(=O)N[C@@H](Cc3cccnc3)C(=O)N(C)CC(=O)N(C)C)CCOCC2)NC1=O` [compound 165, cPEG3aCO-Pen(3)-N(N(Me)2)-T-7MeW-K(NMeAc)-Pen(3)-TMAPF-2Nal-THP-E-N-3Pya-Sar-CON(Me)2] ({Me3N+(CH2)2O(CH2)2O(CH2)2CO}-[Pen]D(NMe2)T[Trp(7-Me)][Lys(Me)](Ac)[Pen]Y(X3)[2Nal][Thp]EN[3Pal][Sar]-NMe2; disulfide 1-6), the EPSA in series [1] was found to be 151 A^2. In addition, on IL-23R, the pIC50 is 8.37.
Consider `CC(=O)NCCCC[C@@H]1NC(=O)[C@H](Cc2c[nH]c3c(C)cccc23)NC(=O)[C@H]([C@@H](C)O)NC(=O)[C@H](CC(N)=O)NC(=O)[C@@H](NC(C)=O)C(C)(C)SSC(C)(C)[C@@H](C(=O)N[C@@H](Cc2ccc(N=[N+]=[N-])cc2)C(=O)N[C@@H](Cc2ccc3ccccc3c2)C(=O)NC2(C(=O)N[C@@H](CCCCNC(C)=O)C(=O)N[C@@H](CC(N)=O)C(=O)N[C@@H](Cc3cccnc3)C(=O)N(C)CC(N)=O)CCOCC2)NC1=O` [compound 417] (Ac-[Pen]NT[Trp(7-Me)]K(Ac)[Pen][Phe(4-N3)][2Nal][Thp]K(Ac)N[3Pal][Sar]-NH2; disulfide 1-6 (inferred)), for which, in series [1], the EPSA came to 167 A^2. On IL-23R, the pIC50 was 8.85.
`CC(=O)N(C)CCCC[C@@H]1NC(=O)[C@H](Cc2ccccc2)NC(=O)[C@H]([C@@H](C)O)NC(=O)[C@H](CC(=O)N(C)C)NC(=O)[C@@H](NC(=O)CCOCCOCC[N+](C)(C)C)C(C)(C)SSC(C)(C)[C@@H](C(=O)N[C@@H](Cc2ccc(OCCOCCOCC[N+](C)(C)C)cc2)C(=O)N[C@@H](Cc2ccccc2)C(=O)NC2(C(=O)N[C@@H](CCCCN(C)C(C)=O)C(=O)N[C@@H](CC(N)=O)C(=O)N[C@@H](Cc3cccnc3)C(=O)N(C)CC(=O)N(C)C)CCOCC2)NC1=O` [compound 565, cPEG3aCO-Pen(3)-N(N(Me)2)-T-F-K(NMeAc)-Pen(3)-APEG3F-F-THP-K(NMeAc)-N-3Pya-Sar-CON(Me)2] ({Me3N+(CH2)2O(CH2)2O(CH2)2CO}-[Pen]D(NMe2)TF[Lys(Me)](Ac)[Pen]Y(CH2CH2OCH2CH2OCH2CH2NMe3+)F[Thp][Lys(Me)](Ac)N[3Pal][Sar]-NMe2; disulfide 1-6): in series [1], the EPSA turned out to be 144 A^2. Further, the pIC50 at IL-23R was < 4.78.
Consider `CCCCCCCCCCCCCCCC[N+](C)(C)CCc1cn(CCOc2ccc(C[C@H](NC(=O)[C@H]3NC(=O)[C@H](CCCCN(C)C(C)=O)NC(=O)[C@H](Cc4c[nH]c5c(C)cccc45)NC(=O)[C@H]([C@@H](C)O)NC(=O)[C@H](CC(=O)N(C)C)NC(=O)[C@@H](NC(=O)CCOCCOCC[N+](C)(C)C)C(C)(C)SSC3(C)C)C(=O)N[C@@H](Cc3ccc4ccccc4c3)C(=O)NC3(C(=O)N[C@@H](CCCCN(C)C(C)=O)C(=O)N[C@@H](CC(N)=O)C(=O)N[C@@H](Cc4cccnc4)C(=O)N(C)CC(=O)N(C)C)CCOCC3)cc2)nn1` [compound 291, cPEG3aCO-Pen(3)-N(N(Me)2)-T-7MeW-K(NMeAc)-Pen(3)-Y(OTzlChC16)-2Nal-THP-K(NMeAc)-N-3Pya-Sar-CON(Me)2] ({Me3N+(CH2)2O(CH2)2O(CH2)2CO}-[Pen]D(NMe2)T[Trp(7-Me)][Lys(Me)](Ac)[Pen]Y(X28)[2Nal][Thp][Lys(Me)](Ac)N[3Pal][Sar]-NMe2; disulfide 1-6 (inferred)), for which the EPSA in series [1] was 137 A^2. Besides, the pIC50 on IL-23R was 6.21.
